Results from ChEMBL document CHEMBL6127037, “Design, synthesis, and biological evaluation of imidazolylacetophenone oxime derivatives as novel brain-penetrant agents for Alzheimer's disease treatment” (Eur J Med Chem, 2024).
The source made the active and inactive calls. The calls are words filed in the database; no cut-off is given here.

Key:
[1] = tested on: BV-2; experiment: Anti-neuroinflammatory activity against LPS-stimulated mouse BV-2 cells assessed as inhibition of NO production at 1 uM; format: functional; parameters: scale not given: the % may be the effect or the level left
[2] = tested on: BV-2; experiment: Anti-neuroinflammatory activity against LPS-stimulated mouse BV-2 cells assessed as inhibition of NO production at 10 uM; format: functional; parameters: scale not given: the % may be the effect or the level left
[3] = Cytotoxicity against LPS stimulated mouse BV-2 cells assessed as cell survival at 10 uM by MTT assay; format: toxicity, cell-based; details: LPS-stimulated BV-2 cells, read-out: Activity
[4] = tested on: BV-2; experiment: Anti-neuroinflammatory activity against LPS-stimulated mouse BV-2 cells assessed as inhibition of NO production; format: functional, cell-based
[5] = tested on: PC12; experiment: Neuroprotective activity against 6-OHDA induced oxidative damage in […] cells assessed as increase in cell viability preincubated for 4 hrs followed by 6-OHDA stimulation and measured after 24 hrs by MTT assay (reference value: 48.6%); format: functional, cell-based; details: Rattus norvegicus, dose 1-10 µM, time 28.0 hrs
[6] = Cytotoxicity against […] cells assessed as cell survival at 20 uM by MTT assay; format: toxicity, cell-based, Rattus norvegicus; details: read-out: Survival
[7] = tested on: HT-22; experiment: Neuroprotective activity against RSL3 induced ferroptosis in mouse HT-22 cells assessed as increase in cell viability at 10 uM preincubated for 4 hrs followed by RSL3 stimulation and measured after 24 hrs by MTT assay (reference value: 52.1%); format: functional; details: time 28 hrs
[8] = Cytotoxicity against mouse HT-22 cells assessed as cell survival at 20 uM by MTT assay; format: toxicity, cell-based; details: read-out: Survival
[9] = target: Acetylcholinesterase (Electrophorus electricus) (UniProt O42275); experiment: Inhibition of electric eel AChE at 20 uM using […] as substrate pretreated for 20 mins prior to DTNB addition for 30 mins followed by substrate addition and measured after 45 mins by Ellman's method relative to control; details: time 95.0 min
[10] = target: Amyloid-beta precursor protein (Homo sapiens) (UniProt P05067); experiment: Inhibition of self-induced amyloid beta (1 to 42 residues) (unknown origin) aggregation at 20 uM by thioflavin T based fluorescence analysis
[11] = target: Amyloid-beta precursor protein (Homo sapiens) (UniProt P05067); experiment: Inhibition of self-induced amyloid beta (1 to 42 residues) (unknown origin) aggregation at 5 to 20 uM by thioflavin T based fluorescence analysis; details: dose 5-20 µM
[12] = tested on: BV-2; experiment: Antiinflammatory activity against LPS induced mouse BV-2 cells assessed as increase in arginase-1 expression at 0.5 to 2.5 uM incubated for 24 hrs by ELISA; format: functional, cell-based; details: dose 0.5-2.5 µM
[13] = tested on: BV-2; experiment: Antiinflammatory activity against LPS induced mouse BV-2 cells assessed as increase in IL-10 expression at 0.5 to 2.5 uM incubated for 24 hrs by ELISA; format: functional, cell-based; details: dose 0.5-2.5 µM
[14] = tested on: BV-2; experiment: Antiinflammatory activity against LPS induced mouse BV-2 cells assessed as decrease in TNFalpha expression incubated for 24 hrs by ELISA; format: functional, cell-based; details: dose 0.1-2.5 µM
[15] = tested on: BV-2; experiment: Antiinflammatory activity against LPS induced mouse BV-2 cells assessed as decrease in PGE2 expression incubated for 24 hrs by ELISA; format: functional, cell-based; details: dose 0.1-2.5 µM
[16] = tested on: BV-2; experiment: Antiinflammatory activity against LPS induced mouse BV-2 cells assessed as decrease in iNOS expression incubated for 24 hrs by Western blotting analysis; format: functional, cell-based; details: dose 0.1-2.5 µM
[17] = tested on: BV-2; experiment: Antiinflammatory activity against LPS induced mouse BV-2 cells assessed as decrease in COX2 expression incubated for 24 hrs by Western blotting analysis; format: functional, cell-based; details: dose 0.1-2.5 µM
[18] = Drug distribution in ICR mouse liver measured at 1.25 mins by micro-PET/CT imaging analysis; format: ADME, tissue-based; details: in vivo, 75 s
[19] = Drug distribution in ICR mouse brain measured at 1.25 mins by micro-PET/CT imaging analysis; format: ADME, tissue-based; details: in vivo, 75 s
[20] = Drug distribution in ICR mouse heart measured at 1.25 mins by micro-PET/CT imaging analysis; format: ADME, tissue-based; details: in vivo, 75 s
[21] = Drug distribution in ICR mouse lung measured at 1.25 mins by micro-PET/CT imaging analysis; format: ADME, tissue-based; details: in vivo, 75 s
[22] = Drug distribution in ICR mouse kidney measured at 1.25 mins by micro-PET/CT imaging analysis; format: ADME, tissue-based; details: in vivo, 75 s
[23] = Drug distribution in ICR mouse liver measured at 60 mins by micro-PET/CT imaging analysis; format: ADME, tissue-based; details: in vivo, 1 h
[24] = Drug distribution in ICR mouse brain measured at 60 mins by micro-PET/CT imaging analysis; format: ADME, tissue-based; details: in vivo, 1 h
[25] = Drug distribution in ICR mouse heart measured at 60 mins by micro-PET/CT imaging analysis; format: ADME, tissue-based; details: in vivo, 1 h
[26] = Drug distribution in ICR mouse lung measured at 60 mins by micro-PET/CT imaging analysis; format: ADME, tissue-based; details: in vivo, 1 h
[27] = Drug distribution in ICR mouse kidney measured at 60 mins by micro-PET/CT imaging analysis; format: ADME, tissue-based; details: in vivo, 1 h
[28] = Drug distribution in ICR mouse kidney measured at 5.5 mins by micro-PET/CT imaging analysis; format: ADME, tissue-based; details: in vivo
[29] = Drug distribution in ICR mouse bone measured at 1.25 to 57.5 mins by micro-PET/CT imaging analysis; format: ADME, tissue-based, Bone element; details: in vivo, time 1.25-57.5 min
[30] = Drug distribution in ICR mouse muscle measured at 1.25 to 57.5 mins by micro-PET/CT imaging analysis; format: ADME, tissue-based, Muscle tissue; details: in vivo, time 1.25-57.5 min
[31] = Drug distribution in ICR mouse brain measured at 1 mins by micro-PET/CT imaging analysis; format: ADME, tissue-based; details: in vivo
[32] = Drug distribution in ICR mouse brain measured after 4 to 5 mins by micro-PET/CT imaging analysis; format: ADME, tissue-based; details: in vivo, time 4-5 min

Chain of Acetylcholinesterase (Electrophorus electricus) (O42275 24-633 limits assumed): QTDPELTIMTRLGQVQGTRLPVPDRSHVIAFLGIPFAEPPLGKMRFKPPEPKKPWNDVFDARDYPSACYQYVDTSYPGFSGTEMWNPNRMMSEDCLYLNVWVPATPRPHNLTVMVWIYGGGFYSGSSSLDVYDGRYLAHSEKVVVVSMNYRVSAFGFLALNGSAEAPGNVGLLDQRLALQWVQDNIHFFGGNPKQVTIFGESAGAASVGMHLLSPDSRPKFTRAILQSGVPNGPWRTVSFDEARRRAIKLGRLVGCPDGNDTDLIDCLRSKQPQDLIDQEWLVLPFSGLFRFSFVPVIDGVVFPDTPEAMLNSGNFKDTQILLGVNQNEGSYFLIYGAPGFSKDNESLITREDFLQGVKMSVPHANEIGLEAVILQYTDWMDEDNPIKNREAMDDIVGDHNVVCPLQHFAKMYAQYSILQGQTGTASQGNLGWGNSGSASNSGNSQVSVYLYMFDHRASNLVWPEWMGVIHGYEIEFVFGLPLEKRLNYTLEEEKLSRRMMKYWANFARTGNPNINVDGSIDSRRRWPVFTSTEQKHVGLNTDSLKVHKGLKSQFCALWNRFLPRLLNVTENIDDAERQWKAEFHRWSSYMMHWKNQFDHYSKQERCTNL
Chain of Amyloid-beta precursor protein (Homo sapiens) (P05067 whole entry, the tested form may be a part): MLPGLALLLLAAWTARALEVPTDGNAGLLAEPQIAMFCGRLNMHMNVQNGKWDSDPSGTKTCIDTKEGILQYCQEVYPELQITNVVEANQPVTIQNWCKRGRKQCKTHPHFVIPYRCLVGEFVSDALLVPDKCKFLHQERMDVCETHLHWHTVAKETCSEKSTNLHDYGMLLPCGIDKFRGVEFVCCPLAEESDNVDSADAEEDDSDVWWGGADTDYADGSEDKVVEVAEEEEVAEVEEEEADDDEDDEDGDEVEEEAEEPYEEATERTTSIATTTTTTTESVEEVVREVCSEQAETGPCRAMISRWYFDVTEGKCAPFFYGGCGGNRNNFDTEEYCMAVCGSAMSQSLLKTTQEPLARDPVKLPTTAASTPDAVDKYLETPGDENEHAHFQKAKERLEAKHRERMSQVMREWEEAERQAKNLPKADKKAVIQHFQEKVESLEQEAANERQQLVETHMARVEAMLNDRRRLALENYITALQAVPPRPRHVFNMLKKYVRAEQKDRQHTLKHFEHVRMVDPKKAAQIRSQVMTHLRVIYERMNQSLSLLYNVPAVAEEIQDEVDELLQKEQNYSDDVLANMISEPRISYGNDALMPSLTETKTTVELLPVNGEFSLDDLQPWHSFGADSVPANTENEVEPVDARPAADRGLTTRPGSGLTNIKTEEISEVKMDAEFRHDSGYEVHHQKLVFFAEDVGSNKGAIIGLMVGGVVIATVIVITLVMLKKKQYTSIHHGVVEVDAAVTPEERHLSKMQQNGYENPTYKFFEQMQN

Structure (SMILES) | Activity [1] | Activity [2] | viability at 10 µM [3] | other results
CN(C)c1ccc(/C(Cn2ccnc2)=N/OC(=O)CCc2ccccc2)cc1 | 31.5% | 31.4% | 92.5% | –
C#CCO/N=C(\Cn1ccnc1)c1ccc2c(c1)OCO2 | 45.2% | 84.5% | 95.9% | EC50 [4]: 1180 nM; Activity [5]: Dose-Dependent Effect; viability at 20 µM [6]: > 95%
O=C(CCCC[C@@H]1CCSS1)O/N=C(\Cn1ccnc1)c1ccc2c(c1)OCO2 | 51.8% | 99.7% | 97.5% | EC50 [4]: 760 nM; Activity [5]: Dose-Dependent Effect; viability at 20 µM [6]: > 95%; Activity [7]: 67.7%; viability at 20 µM [8]: > 90%; inhibition [9]: 54.9%; inhibition [10]: inactive
Cc1c(CO)ncn1CC(=O)c1ccc2c(c1)OCO2 | 27.4% | 37.7% | 99.8% | –
O=C(O/N=C(\Cn1ccnc1)c1ccc2c(c1)OCO2)C12CC3CC(CC(C3)C1)C2 | 44.1% | 88.4% | 113% | –
FCCO/N=C(\Cn1ccnc1)c1ccc2c(c1)OCO2 | 69.5% | 99.4% | 116% | EC50 [4]: 490 nM; Activity [5]: Dose-Dependent Effect; viability at 20 µM [6]: > 95%; Activity [7]: 66.6%; viability at 20 µM [8]: > 90%; inhibition [9]: 60.1%; inhibition [11]: Active; Activity [12]: Active; Activity [13]: Active; Activity [14]: Dose-Dependent Effect; Activity [15]: Dose-Dependent Effect; Activity [16]: Dose-Dependent Effect; Activity [17]: Dose-Dependent Effect
CN(C)c1ccc(/C(Cn2ccnc2)=N/OC(=O)/C=C/c2ccc(Cl)cc2)cc1 | 41.2% | 54.1% | 85.6% | –
O=c1c(O)c(-c2ccc(O)c(O)c2)oc2cc(O)cc(O)c12 [QUERCETIN] | – | 52.8% | 91.3% | –
C#CCO/N=C(\Cn1ccnc1)c1ccc(C(=O)OC)cc1 | 36% | 72.7% | 105% | –
C#CCO/N=C(\Cn1cnc(CO)c1C)c1ccc2c(c1)OCO2 | 27.6% | 48.7% | 75.8% | –
O=C(Cn1ccnc1)c1ccc2c(c1)OCO2 | 21.5% | 61.6% | 97.9% | –
COC(Cn1ccnc1)c1ccc2c(c1)OCO2 (racemic) | 17.9% | 28% | 76.1% | –
O=C(CCCCCO/N=C(\Cn1ccnc1)c1ccc2c(c1)OCO2)NO | 42.7% | 82.9% | 111% | EC50 [4]: 1090 nM; Activity [5]: Dose-Dependent Effect; viability at 20 µM [6]: > 95%; Activity [7]: 66.7%; viability at 20 µM [8]: > 90%; inhibition [11]: Active
CN(C)c1ccc(/C(Cn2ccnc2)=N/OC(=O)/C=C/c2ccccc2Cl)cc1 | 38.8% | 65.8% | 105% | –
C#CCO/N=C(\Cn1ccnc1)c1ccc(C(=O)NO)cc1 | 36.2% | 70.5% | 109% | EC50 [4]: 5610 nM; Activity [5]: Dose-Dependent Effect; viability at 20 µM [6]: > 95%
OC(Cn1ccnc1)c1ccc2c(c1)OCO2 (racemic) | 21.4% | 68.9% | 97.1% | –

Structure (SMILES) | Activity [1] | Activity [2] | viability at 10 µM [3] | other results
FCCCO/N=C(\Cn1ccnc1)c1ccc2c(c1)OCO2 | 31.1% | 65% | 87.7% | –
O=C(/C=C/c1ccc2c(c1)OCO2)O/N=C(\Cn1ccnc1)c1ccc2c(c1)OCO2 | 35.8% | 73% | 85.2% | –
CN(C)c1ccc(/C(Cn2ccnc2)=N/OCc2ccccc2)cc1 | 27.6% | 48.7% | 97.3% | –
COc1cc(/C=C/C(=O)O/N=C(\Cn2ccnc2)c2ccc3c(c2)OCO3)ccc1O | 39.4% | 67.6% | 89.4% | –
FCCOCCOCCO/N=C(\Cn1ccnc1)c1ccc2c(c1)OCO2 | 24.4% | 53.9% | 99.9% | –
C#CCO/N=C(/Cn1ccnc1)c1ccc2c(c1)OCO2 | 13.4% | 25.5% | 98.4% | EC50 [4]: > 20000 nM; Activity [5]: Dose-Dependent Effect; viability at 20 µM [6]: > 95%
c1cn(CCc2ccc3c(c2)OCO3)cn1 | 19.6% | 47.9% | 93.3% | –
CN(C)c1ccc(/C(Cn2ccnc2)=N/OC(=O)/C=C/c2ccc3c(c2)OCO3)cc1 | 22.2% | 34.2% | 96.7% | EC50 [4]: 15700 nM; Activity [5]: Dose-Dependent Effect; viability at 20 µM [6]: > 95%
COc1ccc(/C=C/C(=O)O/N=C(\Cn2ccnc2)c2ccc3c(c2)OCO3)cc1 | 45.6% | 91.3% | 95.9% | –
CN(C)c1ccc(/C(Cn2ccnc2)=N/OC/C=C/c2ccccc2)cc1 | 22.5% | 40.7% | 98.1% | –
COC(=O)CCCCCO/N=C(\Cn1ccnc1)c1ccc2c(c1)OCO2 | 35.4% | 76% | 116% | –
CN(C)c1ccc(/C(Cn2ccnc2)=N/OC(=O)/C=C/c2ccccc2)cc1 | 39.2% | 41.8% | 92.8% | –
C#CCO/N=C(\Cn1ccnc1)c1ccc(C(=O)OCC)cc1 | 34.8% | 73.5% | 115% | –
C=C(C)CO/N=C(\Cn1ccnc1)c1ccc(N(C)C)cc1 | 28.1% | 46.3% | 98.6% | –
[18F]CCO/N=C(\Cn1ccnc1)c1ccc2c(c1)OCO2 | – | – | – | Drug uptake [18]: 18.1 %ID/cc; Drug uptake [19]: 7.4 %ID/cc; Drug uptake [20]: 5 %ID/cc; Drug uptake [21]: 5.2 %ID/cc; Drug uptake [22]: 3.8 %ID/cc; Drug uptake [23]: Not Active; Drug uptake [24]: Not Active; Drug uptake [25]: Not Active; Drug uptake [26]: Not Active; Drug uptake [27]: Not Active; Drug uptake [28]: Active; Drug uptake [29]: Active; Drug uptake [30]: Active; Drug uptake [31]: Active; Drug uptake [32]: Not Active
C#CCO/N=C(\Cn1ccnc1)c1ccc(N(C)C)cc1 | 30.9% | 49.6% | 103% | EC50 [4]: 6780 nM; Activity [5]: Dose-Dependent Effect; viability at 20 µM [6]: > 95%; Activity [7]: 62.5%; viability at 20 µM [8]: > 90%; inhibition [9]: 70.3%; inhibition [11]: Active
